Reference: patent US20240158446A1, “CYCLIC COMPOUND HAVING SELECTIVE INHIBITORY ACTION ON KRAS OVER HRAS AND NRAS” (CHUGAI SEIYAKU KABUSHIKI KAISHA, priority 2021, published 2024)
Where two headings read alike, the source gives them in different places. *1 amine or outer side, *2 acyl side, *3 side chain or, on linkers, in order; H or OH if unused. Where a SMILES comes first, the peptide text is derived from it. Bridges are numbered along the chain shown (N, C = ends). [ ]: non-standard residue; d: D form. The star is where a group is joined. hPhe(3,5-F2-4-CF3) = N[C@@H](CCc1cc(F)c(C(F)(F)F)c(F)c1)C(=O)O; hPhe(3-Cl-4-CF3) = N[C@@H](CCc1ccc(C(F)(F)F)c(Cl)c1)C(=O)O; X17 = CCCCN([C@@H](Cc1ccc(C(F)(F)F)cc1)C(=O)[*:2])[*:1]; NPrPhe(4-CF3) = CCCN[C@@H](Cc1ccc(C(F)(F)F)cc1)C(=O)O; NEtPhe(4-CF3) = CCN[C@@H](Cc1ccc(C(F)(F)F)cc1)C(=O)O; X16 = CCCN([C@@H](Cc1ccc(OC)cc1)C(=O)[*:2])[*:1]; NMePhe(4-Me) = CN[C@@H](Cc1ccc(C)cc1)C(=O)O; NMeGly(cPent) = CN[C@H](C(=O)O)C1CCCC1; Ac4c(3,3-F2) = NC1(C(=O)O)CC(F)(F)C1; NMeD = CN[C@@H](CC(=O)O)C(=O)O; Ac4c(3-oxa) = NC1(C(=O)O)COC1; NMeL = CN[C@@H](CC(C)C)C(=O)O; Morpholide = C1CN(*)CCO1; NMeA = CN[C@@H](C)C(=O)O; NMeAib = CNC(C)(C)C(=O)O; Nle = CCCC[C@H](N)C(=O)O; Piperidide = C1CCN(*)CC1; Ac5c = NC1(C(=O)O)CCCC1; Aze = O=C(O)[C@@H]1CCN1; Aib = CC(C)(N)C(=O)O; Sar = CNCC(=O)O

Legend:
[1] = target: GDP-bound KRAS wild-type protein (Homo sapiens, UniProt P01116); assay: Binding to KRAS by surface plasmon resonance (SPR), Single Cycle Kinetics; details: GDP-bound KRAS wild-type protein, read-out: KRAS KD
[2] = target: GDP-bound NRAS wild-type protein (Homo sapiens, UniProt P01111); assay: Binding to NRAS by surface plasmon resonance (SPR), Single Cycle Kinetics; details: SPR, GDP-bound NRAS wild-type protein vs GDP-bound KRAS wild-type protein
[3] = target: GDP-bound HRAS wild-type protein (Homo sapiens, UniProt P01112); assay: Binding to HRAS by surface plasmon resonance (SPR), Single Cycle Kinetics; details: SPR, GDP-bound HRAS wild-type protein vs GDP-bound KRAS wild-type protein
[4] = SPR Single Cycle Kinetics, 1:1 binding model

Sequence of GDP-bound KRAS wild-type protein (P01116 whole entry): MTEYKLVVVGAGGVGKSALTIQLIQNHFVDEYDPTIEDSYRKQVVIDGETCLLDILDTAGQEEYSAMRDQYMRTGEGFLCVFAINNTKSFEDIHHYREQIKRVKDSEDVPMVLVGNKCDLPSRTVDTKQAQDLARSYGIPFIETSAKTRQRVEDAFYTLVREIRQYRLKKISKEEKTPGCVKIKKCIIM
Sequence of GDP-bound HRAS wild-type protein (P01112 whole entry): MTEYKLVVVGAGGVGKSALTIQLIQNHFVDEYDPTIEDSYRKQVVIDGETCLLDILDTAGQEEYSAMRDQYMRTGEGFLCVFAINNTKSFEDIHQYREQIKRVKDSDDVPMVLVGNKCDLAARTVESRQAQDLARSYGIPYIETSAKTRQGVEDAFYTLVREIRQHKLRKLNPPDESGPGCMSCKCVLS
Sequence of GDP-bound NRAS wild-type protein (P01111 whole entry): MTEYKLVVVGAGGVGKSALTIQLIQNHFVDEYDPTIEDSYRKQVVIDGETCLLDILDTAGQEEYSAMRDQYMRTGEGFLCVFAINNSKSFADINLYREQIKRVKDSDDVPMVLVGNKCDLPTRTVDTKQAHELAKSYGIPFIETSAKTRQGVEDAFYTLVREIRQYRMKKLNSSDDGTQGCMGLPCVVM

Row | Kd [1, 4] | Kd ([1]; SPR, Single Cycle Kinetics) | Structure (SMILES) | NRAS/KRAS (ratio of KD value for NRAS to KD value for KRAS) [2] | HRAS/KRAS (ratio of KD value for HRAS to KD value for KRAS) [3] | NRAS/KRAS (ratio of KD value with respect to NRAS to KD value with respect to KRAS) [2] | HRAS/KRAS (ratio of KD value with respect to HRAS to KD value with respect to KRAS) [3]
1 | 0.19 nM | – | CC[C@H](C)[C@@H]1NC(=O)[C@H](CC(C)C)N(C)C(=O)C[C@@H](C(=O)N2CCOCC2)N(C)C(=O)[C@H](C2CCCC2)N(C)C(=O)C(C)(C)NC(=O)[C@@H]2CCCN2C(=O)[C@H](CCc2ccc(C(F)(F)F)c(Cl)c2)NC(=O)CN(C)C(=O)[C@H](Cc2ccc(C(F)(F)F)cc2)N(CC)C(=O)[C@@H]2CCN2C(=O)[C@H](C)N(C)C1=O [PP0221] ([NMeL]I[NMeA][Aze][NEtPhe(4-CF3)][Sar][hPhe(3-Cl-4-CF3)]P[Aib][NMeGly(cPent)][NMeD]-Morpholide; lactam N-11) | C (A compound having a KD ratio of 0.1 or more and less than 3 is denoted as C) | C (A compound having a KD ratio of 0.1 or more and less than 3 is denoted as C) | – | –
2 | 1.2 nM | – | CCO[C@@H]1C[C@H]2C(=O)NC3(CCCC3)C(=O)N(C)[C@@H](C3CCCC3)C(=O)N(C)[C@H](C(=O)N3CCOCC3)CC(=O)N(C)[C@@H](CC(C)C)C(=O)N[C@@H]([C@@H](C)CC)C(=O)N(C)CC(=O)N(C)[C@H]3CCCCCN(C3=O)[C@@H](Cc3ccc(C(F)(F)F)cc3)C(=O)N(C)CC(=O)N[C@@H](CCc3cc(F)c(C(F)(F)F)c(F)c3)C(=O)N2C1 [PP0492] | – | – | B (a compound having 3 or more and less than 10 is denoted as B) | B (a compound having 3 or more and less than 10 is denoted as B)
3 | – | 0.11 nM | CCC[C@H]1C(=O)N[C@@H]([C@@H](C)CC)C(=O)N2CCC[C@H]2C(=O)N(C)[C@H]2C/C=C\CCN(C2=O)[C@@H](Cc2ccc(C(F)(F)F)cc2)C(=O)N(C)CC(=O)N[C@@H](CCc2ccc(C(F)(F)F)c(OC)c2)C(=O)N2C[C@H](OCC)C[C@H]2C(=O)N(C)C2(CCC2)C(=O)N(C)[C@@H](C2CCCC2)C(=O)N(C)[C@H](C(=O)N(C)C)CC(=O)N1C [PP2320, (1S,4S,10S,13S,17S,20S,26S,28R,32S,38S,42Z)-20-cyclopentyl-28-ethoxy-32-[2-[3-methoxy-4-(trifluoromethyl)phenyl]ethyl]-N,N,2,14,18,21,24,36-octamethyl-10-[(1S)-1-methylpropyl]-3,9,12,15,19,22,25,31,34,37,45-undecaoxo-13-propyl-38-[[4-(trifluoromethyl)phenyl]methyl]spiro[2,8,11,14,18,21,24,30,33,36,39-undecazatetracyclo[37.5.1.0^4,8.0^26,30]pentatetracont-42-ene-23,1′-cyclobutane]-17-carboxamide] | A (a compound having 10 or more and less than 20 is denoted as A) | A (a compound having 10 or more and less than 20 is denoted as A) | – | –
4 | – | 0.4 nM | CCO[C@@H]1C[C@H]2C(=O)NC3(CCC3)C(=O)N(C)[C@@H](C3CCCC3)C(=O)N(C)[C@H](C(=O)N3CCOCC3)CC(=O)N(C)[C@@H](CC(C)C)C(=O)N[C@@H]([C@@H](C)CC)C(=O)N(C)CC(=O)N(C)[C@H]3CCCCCN(C3=O)[C@@H](Cc3ccc(F)cc3Cl)C(=O)N(C)CC(=O)N[C@@H](CCc3cc(F)c(C(F)(F)F)c(F)c3)C(=O)N2C1 [PP0918] | B (a compound having 3 or more and less than 10 is denoted as B) | B (a compound having 3 or more and less than 10 is denoted as B) | – | –
5 | 0.19 nM | – | CCCCN1C(=O)[C@@H]2CCN2C(=O)[C@H](C)N(C)C(=O)[C@H]([C@@H](C)CC)NC(=O)[C@H](CC(C)C)N(C)C(=O)C[C@@H](C(=O)N2CCOCC2)N(C)C(=O)[C@H](C2CCCC2)N(C)C(=O)C2(CCCC2)NC(=O)[C@@H]2CCCN2C(=O)[C@H](CCc2ccc(C(F)(F)F)c(Cl)c2)NC(=O)CN(C)C(=O)[C@@H]1Cc1ccc(C(F)(F)F)cc1 [PP0106] ([NMeL]I[NMeA][Aze][X17][Sar][hPhe(3-Cl-4-CF3)]P[Ac5c][NMeGly(cPent)][NMeD]-Morpholide; lactam N-11) | C (A compound having a KD ratio of 0.1 or more and less than 3 is denoted as C) | B (a compound having 3 or more and less than 10 is denoted as B) | – | –
6 | – | 0.37 nM | CCO[C@@H]1C[C@H]2C(=O)NC3(CC(C)(C)C3)C(=O)N(C)[C@@H](C(CC)CC)C(=O)N(C)[C@H](C(=O)N(C)C)CC(=O)N(C)[C@@H](CC3CC3)C(=O)N[C@@H]([C@@H](C)CC)C(=O)N(C)CC(=O)N(C)[C@H]3C/C=C\CCN(C3=O)[C@@H](Cc3ccc(C(F)(F)F)cc3)C(=O)N(C)CC(=O)N[C@@H](CCc3ccc(C(F)(F)F)c(OC)c3)C(=O)N2C1 [PP2155] | A (a compound having 10 or more and less than 20 is denoted as A) | B (a compound having 3 or more and less than 10 is denoted as B) | – | –
7 | 0.66 nM | – | CCCN1C(=O)[C@@H]2CCN2C(=O)[C@H](C)N(C)C(=O)[C@H]([C@@H](C)CC)NC(=O)[C@H](CC(C)C)N(C)C(=O)C[C@@H](C(=O)N2CCOCC2)N(C)C(=O)[C@H](C2CCCC2)N(C)C(=O)C2(CCCC2)NC(=O)[C@@H]2CCCN2C(=O)[C@H](CCc2ccc(C(F)(F)F)c(Cl)c2)NC(=O)CN(C)C(=O)[C@@H]1Cc1ccc(OC)cc1 [PP0134] ([NMeL]I[NMeA][Aze][X16][Sar][hPhe(3-Cl-4-CF3)]P[Ac5c][NMeGly(cPent)][NMeD]-Morpholide; lactam N-11) | C (A compound having a KD ratio of 0.1 or more and less than 3 is denoted as C) | B (a compound having 3 or more and less than 10 is denoted as B) | – | –
8 | 0.12 nM | – | CCCN1C(=O)[C@@H]2CCN2C(=O)CN(C)C(=O)[C@H]([C@@H](C)CC)NC(=O)[C@H](CC(C)C)N(C)C(=O)C[C@@H](C(=O)N2CCOCC2)N(C)C(=O)[C@H](C2CCCC2)N(C)C(=O)C2(CCCC2)NC(=O)[C@@H]2CCCN2C(=O)[C@H](CCc2ccc(C(F)(F)F)c(Cl)c2)NC(=O)CN(C)C(=O)[C@@H]1Cc1ccc(C(F)(F)F)cc1 [PP0156] ([NMeL]I[Sar][Aze][NPrPhe(4-CF3)][Sar][hPhe(3-Cl-4-CF3)]P[Ac5c][NMeGly(cPent)][NMeD]-Morpholide; lactam N-11) | C (A compound having a KD ratio of 0.1 or more and less than 3 is denoted as C) | B (a compound having 3 or more and less than 10 is denoted as B) | – | –
9 | 0.77 nM | – | CC[C@H](C)[C@@H]1NC(=O)[C@H](C)N(C)C(=O)C[C@@H](C(=O)N(C)C)N(C)C(=O)[C@H](C2CCCC2)N(C)C(=O)C2(CCCC2)NC(=O)[C@@H]2CC(F)(F)CN2C(=O)[C@H](CCc2cc(F)c(C(F)(F)F)c(F)c2)NC(=O)CN(C)C(=O)[C@H](Cc2ccc(C(F)(F)F)cc2)N2CCCCC[C@@H](C2=O)N(C)C(=O)CN(C)C1=O [PP0472] | – | – | B (a compound having 3 or more and less than 10 is denoted as B) | B (a compound having 3 or more and less than 10 is denoted as B)
10 | 0.45 nM | – | CCCN1C(=O)[C@@H]2CCN2C(=O)CN(C)C(=O)[C@H]([C@@H](C)CC)NC(=O)[C@H](CC(C)C)N(C)C(=O)C[C@@H](C(=O)N2CCOCC2)N(C)C(=O)[C@H](C2CCCC2)N(C)C(=O)C2(COC2)NC(=O)[C@@H]2CCCN2C(=O)[C@H](CCc2cc(F)c(C(F)(F)F)c(F)c2)NC(=O)CN(C)C(=O)[C@@H]1Cc1ccc(C(F)(F)F)cc1 [PP0801] ([NMeL]I[Sar][Aze][NPrPhe(4-CF3)][Sar][hPhe(3,5-F2-4-CF3)]P[Ac4c(3-oxa)][NMeGly(cPent)][NMeD]-Morpholide; lactam N-11) | – | – | C (A compound having a KD ratio of 0.1 or more and less than 3 is denoted as C) | B (a compound having 3 or more and less than 10 is denoted as B)
11 | 0.096 nM | – | CCCN1C(=O)CN(C)C(=O)CN(C)C(=O)[C@H]([C@@H](C)CC)NC(=O)[C@H](CC(C)C)N(C)C(=O)C[C@@H](C(=O)N2CCOCC2)N(C)C(=O)[C@H](C2CCCC2)N(C)C(=O)C2(CC(F)(F)C2)NC(=O)[C@@H]2CCCN2C(=O)[C@H](CCc2cc(F)c(C(F)(F)F)c(F)c2)NC(=O)CN(C)C(=O)[C@@H]1Cc1ccc(C(F)(F)F)cc1 [PP0766] ([NMeL]I[Sar][Sar][NPrPhe(4-CF3)][Sar][hPhe(3,5-F2-4-CF3)]P[Ac4c(3,3-F2)][NMeGly(cPent)][NMeD]-Morpholide; lactam N-11) | – | – | B (a compound having 3 or more and less than 10 is denoted as B) | B (a compound having 3 or more and less than 10 is denoted as B)

Row | Structure (SMILES) | Kd [1, 4] | Kd ([1]; SPR, Single Cycle Kinetics) | NRAS/KRAS (ratio of KD value for NRAS to KD value for KRAS) [2] | HRAS/KRAS (ratio of KD value for HRAS to KD value for KRAS) [3] | NRAS/KRAS (ratio of KD value with respect to NRAS to KD value with respect to KRAS) [2] | HRAS/KRAS (ratio of KD value with respect to HRAS to KD value with respect to KRAS) [3]
12 | CCCC[C@@H]1NC(=O)[C@H](CCc2ccc(C(F)(F)F)c(Cl)c2)NC(=O)CN(C)C(=O)[C@H](Cc2ccc(C)cc2)N(C)C(=O)[C@@H]2CCN2C(=O)[C@H](C)N(C)C(=O)[C@H]([C@@H](C)CC)NC(=O)[C@H](CC(C)C)N(C)C(=O)C[C@@H](C(=O)N2CCCCC2)N(C)C(=O)[C@H](CC(C)C)NC(=O)C(C)(C)N(C)C1=O [PP0047] ([NMeL]I[NMeA][Aze][NMePhe(4-Me)][Sar][hPhe(3-Cl-4-CF3)][Nle][NMeAib]L[NMeD]-Piperidide; lactam N-11) | 18 nM | – | C (A compound having a KD ratio of 0.1 or more and less than 3 is denoted as C) | C (A compound having a KD ratio of 0.1 or more and less than 3 is denoted as C) | – | –
